The values below come from publication PMC4077824, “Conserved Prosegment Residues Stabilize a Late-Stage Folding Transition State of Pepsin Independently of Ground States” (PLoS ONE, 2014).

Several values for one entry are separate records, joined by “and”; a condition that tells them apart may be missing. Equal values may be shown once. Where no end group is shown, it is not given here.

For data set [1], the system named is pepsin (PS-Rp, PS-TS, PS-Np complexes). In words: Φ-value analysis from PS-catalyzed folding and binding constants. Also noted: species or system porcine. The note with it: for Φ: ratio ΔΔG^‡/ΔΔGPS(Np-Rp); for Φ / ΔΔGPS(Np-Rp) (change in equilibrium stability of PS-Np relative to PS-Rp): ± SD by propagation of errors; for ΔΔGPS(Np-Rp) (change in equilibrium stability of PS-Np relative to PS-Rp): ΔΔGPS-Np minus ΔΔGPS-Rp; for effect on PS-TS stability (in words): ΔΔGPS-TS = ΔΔG^‡ + ΔΔGPS-Rp. The protocol: Calculation of Φ-values from PS-catalyzed folding and binding constants
The change in stability of the folding transition state upon mutation was calculated using [drawing 3] (3) where k f, wt and k f, mut are the PS-catalyzed folding rate constants of the wild-type and mutant PS peptides. The change in equilibrium stability of PS-Np relative to PS-Rp upon mutation of the PS (ΔΔGPS(Np-Rp)) was determined as the difference between the changes in binding energies, using [drawing 4] (4) and [drawing 5] (5)
Here, ΔΔGbind refers to either ΔΔGPS-Rp, determined from K d values, or ΔΔGPS-Np, determined from K i values. The Φ-value for each mutant corresponds to eq 3 divided by eq 5. Additional details are included in the supporting information section (Text S1).
As outlined below, ∆Gbind values are used to calculate ∆∆GPS(Np-Rp), which is the change in the equilibrium free energy difference between PS-Np and PS-Rp upon mutation of the PS (for a diagram of the folding reaction, see Fig S1)
ΔΔGbind can refer to either ∆∆G^PS-Np(wt-mut) or ∆∆G^PS-Rp(wt-mut). Also, we can write ∆Gbind in terms of its components
where ∆GPS, ∆Gpepsin and ∆Gsolvent refer to the change in free energy of the PS, pepsin and the solvent upon PS binding to pepsin, respectively. Combining equations S1 and S2 gives
The contribution of each component to ∆∆Gbind will depend on the particular mutation (e.g., nature of substitution, location within folded structure, solvent accessibility). This is the general case for protein engineering analysis, in which the effects of mutations on changes in equilibrium and activation energies are the result of many individual interaction energy terms, including solvent terms, as previously explained in detail [Fersht AR, Matouschek A, Serrano L (1992) The folding of an enzyme I. Theory of protein engineering analysis of stability and pathway of protein folding. J Mol Biol 224: 771‒782]. Most importantly, there is no requirement to separate ΔΔGbind into its components in order to proceed with analysis as we are interested in the overall change in equilibrium stability of the PS-pepsin complex (∆∆GPS(Np-Rp))
This bimolecular approach to Φ-value analysis of protein folding is qualitatively identical to Φ-value analysis as it was originally applied to the study of enzyme catalysis. As outlined previously [Fersht AR], changes in the free energy of enzyme (E) binding to substrate (S) or product (P) are used to determine the change in free energy difference between E-P and E-S upon mutation, ∆∆G^EP-ES(wt-mut), where
As these are at the scale of global energy terms, equations S4 and S5 are equivalent and PS-catalyzed folding can be treated similarly as enzyme catalysis, in which the PS is the foldase and the denatured and natively folded protein are the substrate and product, respectively. However, protein folding reactions are more complicated to interpret at the level of individual interaction energy terms, which are more numerous [Fersht AR].
Changes in the binding energies between PS-Rp and PS-Np upon PS mutation can then be used to determine Φ-values with the following considerations:
1. Free PS is unstructured (see Fig S6), so Ala mutations are expected to have a negligible effect on the stability and conformation of free PS.
2. Changes in binding and folding upon mutation can be localized to the loss of interactions in the immediate vicinity of the truncation mutation (i.e., larger residue mutated to Ala), and not due to gross conformational changes of the PS or changes in the binding/folding mechanism (consider as strong evidence that all of the mutant PS’s readily catalyze folding to the native, active form).
3. Changes in PS-Rp and PS-Np binding energies upon mutation (∆∆G^PS-Np(wt-mut) and ∆∆G^PS-Rp(wt-mut)) are measured directly, while the change in the PS-TS binding energy (∆∆G^PS-TS(wt-mut)) is the sum of ∆∆G^PS-Rp(wt-mut) and ∆∆G^‡(wt-mut).
4. Φ-values are calculated using […]

The subject of another data set is refolded pepsin (Rp). The following applies: 1H-15N TROSY NMR, absence of 100 mM NaCl; ref [51]; cited from earlier work. The protocol:
Coarse-grain simulations have been used to understand the nature of non-native interactions in small, single-domain proteins lacking stable folding intermediates, [48], [49]. […] It would be challenging, but not impossible, to use similar coarse-grain approaches to model the folding of pepsinogen (370 residues). Using simulation to gain insigh ... || PS binding to Rp was measured in buffer without added 100 mM NaCl in order to obtain more accurate measurements of K d, owing to a larger change in signal in the absence of salt. Additionally, without added 100 mM NaCl it was possible to isolate the PS-Rp binding step from the catalyzed folding step thereby improving the determination of K d. […] However, ^1H-^15N TROSY NMR experiments indicated tha ...

The nature of data set [2]: CD spectroscopy of prosegment. It is filed as physicochemical. The note with it: PSwt 0.1 mg/ml, pure water or 20 mM acetic acid/NaOH pH 5.3 with and without 100 mM NaCl. The protocol: CD data were collected using a Jasco J-810 spectropolarimeter (Jasco corp., Tokyo, Japan), over a wavelength range of 250 nm to 190 nm with a 1 nm resolution, 100 nm/min scan rate, 0.25 s response time and four-fold accumulation of scans. PSwt was diluted to 0.1 mg/ml in either pure water or 20 mM acetic acid/NaOH buffer at pH 5.3, with and without 100 mM NaCl, and loaded into a cell with a 0.1 cm path length. Background spectra were subtracted and the sample spectra converted to units of mean residue ellipticity, MRE, using MRE = MRW ×θ λ/(10×d×c), where MRW is the mean residue weight (molecular weight/number of residues), θ λ is the measured ellipticity at a particular wavelength (degrees), d is the pathlength (0.1 cm) and c is the protein concentration (g/cm^3).
Supplementary file pone.0101339.s006.tif: Figure S6 CD spectra of prosegment. Far-UV CD spectra of PSwt, in ddH2O and in 20 mM acetic acid/NaOH, at pH 5.3, with and without 100 mM NaCl added. […] Anal Biochem 287: 243–251]. (TIF) Click here for additional data file.

For the sequence “LVKVPLVRKKSLRQNLAKNGKLKDFLKTHKHNPASKYFPEAAAL [I17A]”, in data set [1], the Φ is 0 and 0.0±0.1; the “ΔΔGPS(Np-Rp) (change in equilibrium stability of PS-Np relative to PS-Rp)” value is 1.26 ± 0.28 kcal/mol; the “effect on PS-TS stability (in words)” value is “negligible effect on PS-Rp and PS-TS stability”.
As to “LVKAPLVRKKSLRQNLIKNGKLKDFLKTHKHNPASKYFPEAAAL [V4A]”, in data set [1], the Φ was −1.0±0.3, the “ΔΔGPS(Np-Rp) (change in equilibrium stability of PS-Np relative to PS-Rp)” value is -0.93 ± 0.18 kcal/mol and the “effect on PS-TS stability (in words)” value is “destabilizing to the TS”.
Consider “LVKVPLVRKKSLRQNLIKNGKLKDFLKTHKHNPASKYFPEAAAL [WT]”, for which the “folding of PS-Rp to native complex without 100 mM NaCl” value in the data set with refolded pepsin (Rp) is on record as “does fold to the native complex”. In addition, the figures for the “secondary structure of free PS by CD” value in data set [2] and in data set [2] (listed as PS) were “A negative band at 198 nm is characteristic of random coil structure” and “unstructured on its own”, respectively.
